# Marks after values point to notes of the source that are not given here.
# Tested on: adult subjects with psoriasis
# Assay: Phase II/2b clinical study in plaque psoriasis: efficacy and patient-reported outcomes
# Type: in vivo, human
# Conditions: for PGA response rate (primary endpoint): interim analysis; for subjects with ≥4 improvement in pruritus NRS score from baseline: baseline NRS score ≥4; for PGA response rate (PGA 0 or 1 and ≥2-grade improvement): mITT OC; for PASI50 response rate / PASI75 response rate / PASI90 response rate: Week 16; for PGA treatment success: Week 16 (4 weeks after end of treatment)
# Source text: This was a multicenter (United States, Canada, and Japan), randomized, double-blind (Sponsor-unblind), vehicle-controlled, 6-arm, parallel-group, dose-finding study in adult subjects with psoriasis. Certain study personnel at each site were unblinded to dose-frequency.
# The study consisted of 3 periods: up to 4 weeks Screening, 12 weeks double-blind treatment, and 4 weeks post-treatment follow-up. Study visits occurred at Screening; Baseline; weeks 1, 2, 4, 8, and 12 during the treatment period; and 2 and 4 weeks after the last application of study treatment (i.e., at weeks 14 and 16). Additional visits could occur, as needed, for early withdrawals or to follow-up on any skin reactions or ongoing AEs. A subject's total duration of study participation was approximately 16 to 20 weeks.
# Two concentrations of Tapinarof cream (0.5% and 1%) and a vehicle control were evaluated following application to all psoriasis lesions (except on the scalp) once (QD) or twice daily (BID) for 12 weeks. There were no planned dose adjustments during the study.
# Efficacy was assessed by using a 5-point static Physician Global Assessment (PGA) (0-4 scale), the Psoriasis Area and Severity Index (PASI), % BSA involvement, target lesion assessments (erythema, scaling, and plaque thickness), and subject-reported itch/pruritus severity using a numeric rating scale (NRS) (from the Psoriasis Symptom Diary [PSD]). Additional subject-reported outcomes included the daily PSD (which also contained severity and bother items for 3 additional symptoms). Investigator global impression of change item (assessing change in severity of psoriasis symptoms) and 2 subject global impressions of change items (assessing change in severity of psoriasis symptoms and change in severity of itch/pruritus) were also assessed.
# Physician Global Assessment: The PGA is a clinical tool for assessing the current state/severity of a subject's psoriasis. It is a static 5-point morphological assessment of overall disease severity, as determined by the investigator, using the clinical characteristics of erythema, plaque thickness, and scaling as guidelines. At each specified time point, the PGA is made without reference to previous scores. Variations of the PGA are frequently used in clinical studies because it is a simple assessment that is more similar to the assessments actually used in clinical practice. Scoring system ranges from 0 (=Clear) to 4 (=Severe).
# Psoriasis Area and Severity Index: The PASI scoring system is a widely-used standard clinical tool for assessing the severity of psoriasis that takes into account the overall severity of erythema (redness), thickness (induration), and scale, as well as the extent of BSA affected with psoriasis. The 3 clinical signs are each graded on a 5 point scale (0 to 4) and the % BSA affected is scored on a 7-point scale (0 to 6) for each of the 4 specified body regions (head, upper extremities, trunk, and lower extremities). The individual scores are multiplied by a weighted factor for each body region; the sum of these scores gives the overall PASI score. Higher scores indicate more severe disease. PASI is a static assessment made without reference to previous scores.
# Body Surface Area: The extent of BSA affected by psoriasis is a general indicator of disease severity and was measured throughout the study. The extent of BSA to which study treatment was applied was also recorded. For the purpose of approximate clinical estimation, the total palmar surface of the palm plus 5 digits was assumed to be approximately equivalent to 1% BSA.
# Target Lesion Grading: A single target lesion was selected at Baseline to assess efficacy in treating a discrete area rather than an overall average of all areas. For that lesion, the severity of erythema, scaling, and plaque thickness was assessed by the investigator on a 5-point scale ranging from “0=none” to “4=severe”. […]
compound,measurement,setting,value
"CC(C)c1c(O)cc(/C=C/c2ccccc2)cc1O [Tapinarof, 3,5-Dihydroxy-4-isopropyl-trans-stilbene]","Target lesion Erythema, percent change from Baseline (Mean)","1% BID, Early WD",−46.67%
same,"Target lesion Plaque thickness, percent change from Baseline (Mean)","1% BID, Early WD",−46.67%
same,"Target lesion Scaling, percent change from Baseline (Mean)","1% BID, Early WD",−52.50%
same,PGA response at Week 12,"1% BID, Fitzpatrick skin type I/II",60%
same,PGA response at Week 12,"1% BID, Fitzpatrick skin type III/IV",54%
same,PGA response at Week 12,"1% BID, Fitzpatrick skin type V/VI",100%
same,"Target lesion Erythema, percent change from Baseline (Mean)","1% BID, Follow-up Week 14",−65.42%
same,"Target lesion Plaque thickness, percent change from Baseline (Mean)","1% BID, Follow-up Week 14",−67.50%
same,"Target lesion Scaling, percent change from Baseline (Mean)","1% BID, Follow-up Week 14",−67.50%
same,"Target lesion Erythema, percent change from Baseline (Mean)","1% BID, Follow-up/Week 16",−78.33%
same,"Target lesion Plaque thickness, percent change from Baseline (Mean)","1% BID, Follow-up/Week 16",−76.67%
same,"Target lesion Scaling, percent change from Baseline (Mean)","1% BID, Follow-up/Week 16",−77.50%
same,"Target lesion Erythema, percent change from Baseline (Mean)","1% BID, Week 1",−12.50%
same,"Target lesion Plaque thickness, percent change from Baseline (Mean)","1% BID, Week 1",−18.75%
same,"Target lesion Scaling, percent change from Baseline (Mean)","1% BID, Week 1",−25.00%
same,"Target lesion Erythema, percent change from Baseline (Mean)","1% BID, Week 2",−25.52%
same,"Target lesion Plaque thickness, percent change from Baseline (Mean)","1% BID, Week 2",−33.33%
same,"Target lesion Scaling, percent change from Baseline (Mean)","1% BID, Week 2",−32.55%
same,"Target lesion Erythema, percent change from Baseline (Mean)","1% BID, Week 4",−44.94%
same,"Target lesion Plaque thickness, percent change from Baseline (Mean)","1% BID, Week 4",−48.51%
same,"Target lesion Scaling, percent change from Baseline (Mean)","1% BID, Week 4",−55.65%
same,"Target lesion Erythema, percent change from Baseline (Mean)","1% BID, Week 8",−62.50%
same,"Target lesion Plaque thickness, percent change from Baseline (Mean)","1% BID, Week 8",−62.82%
same,"Target lesion Scaling, percent change from Baseline (Mean)","1% BID, Week 8",−70.51%
same,PGA response rate (primary endpoint),"1% BID, Week 8",42%
same,Mean change in nine items of the PSD from baseline,"1% BID, Week 12",−4.5^‡
same,Mean change in total target lesion grading scores from baseline,"1% BID, Week 12",−6.9*
same,"Target lesion Erythema, percent change from Baseline (Mean)","1% BID, Week 12",−77.65%
same,"Target lesion Plaque thickness, percent change from Baseline (Mean)","1% BID, Week 12",−81.82%
same,"Target lesion Scaling, percent change from Baseline (Mean)","1% BID, Week 12",−78.79%
same,absolute mean change in percent BSA affected from baseline,"1% BID, Week 12",4.9
same,decrease in total target lesion grading scores (mean change),"1% BID, Week 12",6.9
same,subjects with ≥4 improvement in pruritus NRS score from baseline,"1% BID, Week 12",55%
same,PGA response rate (PGA 0 or 1 and ≥2-grade improvement),"1% BID, Week 12",65%
same,PASI50 response rate,1% BID,83%
same,PASI75 response rate,1% BID,63%
same,PASI90 response rate,1% BID,38%
same,PGA treatment success,1% BID,58%
same,subjects with severity of pruritus symptoms rated very/moderately improved,"1% BID, baseline to Week 12",70%
same,PGA response at Week 12,"1% BID, psoriasis duration 5 years to <10 years",67%
same,PGA response at Week 12,"1% BID, psoriasis duration 6 months to <5 years",50%
same,PGA response at Week 12,"1% BID, psoriasis duration ≥10 years",73%
same,PGA response at Week 12,"1% BID, ≥10% BSA affected at baseline",64%
same,PASI75 responders who maintained response from Week 12 to Week 16,1% QD,93%
same,PGA responders who maintained response from Week 12 to Week 16,1% QD,86%
same,"difference in PGA response rate, active minus vehicle","1% QD-vehicle QD, Week 12",51.0%
same,PGA response at Week 12,"1% QD, 1 to <10% BSA affected at baseline",60%
same,"Target lesion Erythema, percent change from Baseline (Mean)","1% QD, Early WD",−47.62%
same,"Target lesion Plaque thickness, percent change from Baseline (Mean)","1% QD, Early WD",−60.71%
same,"Target lesion Scaling, percent change from Baseline (Mean)","1% QD, Early WD",−57.14%
same,PGA response at Week 12,"1% QD, Fitzpatrick skin type I/II",67%
same,PGA response at Week 12,"1% QD, Fitzpatrick skin type III/IV",47%
same,PGA response at Week 12,"1% QD, Fitzpatrick skin type V/VI",75%
same,"Target lesion Erythema, percent change from Baseline (Mean)","1% QD, Follow-up Week 14",−70.65%
same,"Target lesion Plaque thickness, percent change from Baseline (Mean)","1% QD, Follow-up Week 14",−70.29%
same,"Target lesion Scaling, percent change from Baseline (Mean)","1% QD, Follow-up Week 14",−67.39%
same,"Target lesion Erythema, percent change from Baseline (Mean)","1% QD, Follow-up/Week 16",−74.24%
same,"Target lesion Plaque thickness, percent change from Baseline (Mean)","1% QD, Follow-up/Week 16",−65.91%
same,"Target lesion Scaling, percent change from Baseline (Mean)","1% QD, Follow-up/Week 16",−71.59%
same,"Target lesion Erythema, percent change from Baseline (Mean)","1% QD, Week 1",−17.14%
same,"Target lesion Plaque thickness, percent change from Baseline (Mean)","1% QD, Week 1",−13.10%
same,"Target lesion Scaling, percent change from Baseline (Mean)","1% QD, Week 1",−24.29%
same,"Target lesion Erythema, percent change from Baseline (Mean)","1% QD, Week 2",−35.68%
same,"Target lesion Plaque thickness, percent change from Baseline (Mean)","1% QD, Week 2",−30.47%
same,"Target lesion Scaling, percent change from Baseline (Mean)","1% QD, Week 2",−32.81%
same,"Target lesion Erythema, percent change from Baseline (Mean)","1% QD, Week 4",−51.88%
same,"Target lesion Plaque thickness, percent change from Baseline (Mean)","1% QD, Week 4",−47.04%
same,"Target lesion Scaling, percent change from Baseline (Mean)","1% QD, Week 4",−53.49%
same,"Target lesion Erythema, percent change from Baseline (Mean)","1% QD, Week 8",−65.06%
same,"Target lesion Plaque thickness, percent change from Baseline (Mean)","1% QD, Week 8",−60.90%
same,"Target lesion Scaling, percent change from Baseline (Mean)","1% QD, Week 8",−71.79%
same,PGA response rate (primary endpoint),"1% QD, Week 8",32%
same,Mean change in nine items of the PSD from baseline,"1% QD, Week 12",−4.0^†
same,Mean change in total target lesion grading scores from baseline,"1% QD, Week 12",−7.0*
same,"Target lesion Erythema, percent change from Baseline (Mean)","1% QD, Week 12",−81.88%
same,"Target lesion Plaque thickness, percent change from Baseline (Mean)","1% QD, Week 12",−70.29%
same,"Target lesion Scaling, percent change from Baseline (Mean)","1% QD, Week 12",−83.33%
same,absolute mean change in percent BSA affected from baseline,"1% QD, Week 12",4.3
same,decrease in total target lesion grading scores (mean change),"1% QD, Week 12",7.0
same,subjects with ≥4 improvement in pruritus NRS score from baseline,"1% QD, Week 12",73%
same,PGA response rate (PGA 0 or 1 and ≥2-grade improvement),"1% QD, Week 12",56%
same,PASI50 response rate,1% QD,77%
same,PASI75 response rate,1% QD,58%
same,PASI90 response rate,1% QD,42%
same,PGA treatment success,1% QD,54%
same,PGA response at Week 12,"1% QD, psoriasis duration 5 years to <10 years",50%
same,PGA response at Week 12,"1% QD, psoriasis duration 6 months to <5 years",80%
same,PGA response at Week 12,"1% QD, psoriasis duration ≥10 years",50%
same,PGA response at Week 12,"1% QD, ≥10% BSA affected at baseline",40%
same,subjects rating itch symptoms very improved or moderately improved,"1% and 0.5% concentration groups, Week 12",70-77%
same,subjects rated by investigators as very improved or moderately improved,"1% concentration groups, Week 12",> 80%
same,subjects rating pruritus symptoms very improved or moderately improved,"1% groups, Week 12",70-76%

# Source: patent US12569453B2, “Use of tapinarof for the treatment of atopic dermatitis” (Dermavant Sciences GmbH, priority 2018, dated 2026)
